# Measured values: US20120316199A1, “COMPOSITIONS AND METHODS FOR TREATING, CONTROLLING, REDUCING, OR AMELIORATING INFLAMMATORY PAIN” (priority 2011, published 2012)
# Legend:
# [1] = tested on: leukocytes (PMN) in aqueous humor; assay: Leukocytes (PMN) measurement in aqueous humor, rabbit paracentesis model; type: in vivo, Rabbit (New Zealand); settings: second paracentesis, group mean
# Description: Each rabbit was placed in a restraint device and tagged with the alphanumeric code. The formulations were instilled (50 μl) into the conjunctival sac of both eyes 180, 120, 90 and 30 min before the first paracentesis; then 15, 30, 90 min after the first paracentesis. To perform the first paracentesis the animals were anaesthetized by intravenous injection of 5 mg/kg Zoletil® (Virbac; 2.5 mg/kg tiletamine HCl and 2.5 mg/kg zolazepam HCl) and one drop of local anesthetic (Novesina®, Novartis) was administered to the eye. Anterior chamber paracentesis was performed with a 26 G needle attached to a tuberculin syringe; the needle was introduced into the anterior chamber through the cornea, taking care not to damage the tissues. Two hours after the first paracentesis, the animals were sacrificed with 0.4 ml Tanax® (Intervet International B.V.) and the second paracentesis was performed. About 100 μl of aqueous humor were removed at the second paracentesis. Aqueous humor was immediately split in four aliquots and stored at −80° C. until analysis. Then both eyes were enucleated and the iris-ciliary body was carefully excised, placed in polypropylene tubes, and stored at −80° C. until analysis.
# For the determination of the number of leukocytes we used a haernocytometer (Improved Neubauer Chamber; Bright-line, Hausser Scientific) and a Polyvar 2 microscope (Reichert-Jung).
# Pupillary diameter, PGE2, protein, PMN, and MPO were expressed as mean±SEM. Statistical analysis was performed using one way ANOVA followed by a Newman-Keuls post hoc test. Clinical score was expressed as % of eyes and the statistical analysis was performed using Kruskal-Wallis followed by a Dunn post hoc test. P<0.05 was considered statistically significant in both cases. Prism 4 software (GraphPad Software, Inc.) was used for the analysis and graphs.
# visual acuity = assay: Clinical study after cataract surgery: Snellen visual acuity (safety); type: in vivo, human; settings: overall
# From the text: (§1) There were 8 treatment groups in this study, consisting of three drug doses, vehicle and three dosing frequencies (see also Table 4-1): • Group A: 1% BOL-303242-X ophthalmic suspension, two times per day (BID) • Group B: 2% BOL-303242-X ophthalmic suspension, one time per day (QD) • Group C: 2% BOL-303242-X ophthalmic suspension, BID • Group D: 2% BOL-303242-X ophthalmic suspension, four times per day (QID) • Group E: 3% BOL-303242-X ophthalmic suspension, QD • Group F: 3% BOL-303242-X ophthalmic suspension, BID • Group G: 3% BOL-303242-X ophthalmic suspension, QID • Group H: Vehicle for BOL-303242-X (divided equally into QID, BID, and QD)
# (§2) Visit 1 (screening), Visit 2 (cataract surgery), Visit 3 (postoperative Day 1), Visit 4 (postoperative Day 3±1 day), Visit 5 (postoperative Day 8±1 day), Visit 6 (postoperative Day 15±1 day), Visit 7 (postoperative Day 18±1 day). Subject assessments included adverse events (AEs), concomitant medications, ocular symptoms, pinholed Snellen visual acuity (VA), intraocular pressure (IOP), ocular signs (biomicroscopy), fundoscopy, and study drug drop sensation. In addition, subject diaries were collected and reviewed for accuracy and treatment compliance.
# (§3) Safety: The safety endpoints in this study were: incidence of AEs, change in IOP, ocular signs (biomicroscopy), Snellen VA, fundoscopy, study drug drop sensation assessment.
# ocular signs = assay: Clinical study after cataract surgery: ocular signs (biomicroscopy); type: in vivo, human
# From the text: as §1, §2, §3
smiles,measurement,setting,value
"Cc1ccc2c(NC[C@](O)(CC(C)(C)c3cc(F)cc4c3OCC4)C(F)(F)F)cccc2n1 [BOL-303242-X, mapracorat]","PMN numbers in aqueous humor, Mean",[1]; 0.1% formulation,28.333 number/μl
same,"PMN numbers in aqueous humor, Mean",[1]; 0.5% formulation,21.250 number/μl
same,"PMN numbers in aqueous humor, Mean",[1]; 1% formulation,28.750 number/μl
same,subjects whose VA did not decline by two lines or more,visual acuity,more than 92%
same,"proportions of subjects with increases in scores for anterior vitreous haze, corneal edema, corneal staining, eyelid erythema, hyphema, and posterior synechiae",ocular signs; any dose groups at any postoperative visits,No statistically significant differences
same,"proportions of subjects with increases in scores for AC cells, AC flare, bulbar conjunctival injection, chemosis, ciliary flush, palpebral conjunctival injection","ocular signs; certain dose groups at Visits 4, 5, 7 as listed",statistically significantly lower proportions of subjects with increases in scores
